Test results from patent publication US10519177B2, “Heterocyclic compounds and uses thereof” (Plexxikon Inc., priority 2013, dated 2019).

Tests used:
[1] = target: BRD4-BD12 (1-477) (Homo sapiens (Human), UniProt O60885); experiment: Alphascreen binding assay BRD4-BD12; conditions: BRD4(1 2) H4; read-out: Biochemical activity (IC50 μM) BRD4(1 2) H4
Summary of the method: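 In this competition format, compounds displace a biotinylated tetra-acetyl H4 peptide from E. coli-expressed human BRD4 bromodomain constructs captured on nickel chelate beads. The reaction runs at pH 7.5 with 2 mM DTT and detergent for 1 h at room temperature before a 30 min bead step.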

[2] = test system: MV-4-11 cells; experiment: Oncology cell growth assay MV-4-11 (CellTiter Glo); assay type: cell-based; conditions: Homo sapiens, MV4-11, 72 h; MV-4-11, 3d growth; read-out: Cell activity (IC50 μM) MV-4-11 3d-Growth
Summary of the method: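 Growth read by CellTiter Glo luminescence after 72 h compound treatment of MLL-AF4-bearing MV-4-11 cells (3000/well). Titration: 8 points, 1:3 steps, maximum 10 μM, 0.2% DMSO final. Data normalized to DMSO wells, four-parameter fit gives pIC50.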

SMILES	IC50 [1]	IC50 [2]
COc1cc(-c2cn(Cc3cccc(C)n3)c3cc(-c4c(C)noc4C)cnc23)ccc1C(=O)O [P-0941, 4-[6-(3,5-dimethylisoxazol-4-yl)-1-[(6-methyl-2-pyridyl)methyl]pyrrolo[3,2-b]pyridin-3-yl]-2-methoxy-benzoic acid]	< 1 µM	< 1 µM
CC[C@H](c1ccccn1)n1cc(-c2ccc(CC(=O)O)cc2)c2ncc(-c3c(C)noc3C)cc21 [P-0962, 2-[4-[6-(3,5-dimethylisoxazol-4-yl)-1-[(1R)-1-(2-pyridyl)propyl]pyrrolo[3,2-b]pyridin-3-yl]phenyl]acetic acid]	< 1 µM	< 1 µM
CC[C@@H](c1ccccn1)n1cc(-c2ccc(F)c(C(=O)O)c2)c2ncc(-c3c(C)noc3C)cc21 [P-1023, 5-[6-(3,5-dimethylisoxazol-4-yl)-1-[(1S)-1-(2-pyridyl)propyl]pyrrolo[3,2-b]pyridin-3-yl]-2-fluoro-benzoic acid]	< 1 µM	< 1 µM
Cc1noc(C)c1-c1cnc2c(-c3ccc(C(C)(C)C#N)cc3)cn(CC3(C)CCOCC3)c2c1 [P-0946, 2-[4-[6-(3,5-dimethylisoxazol-4-yl)-1-[(4-methyltetrahydropyran-4-yl)methyl]pyrrolo[3,2-b]pyridin-3-yl]phenyl]-2-methyl-propanenitrile]	< 1 µM	< 1 µM
Cc1noc(C)c1-c1cnc2ccn(C(c3ccccc3)c3ccccn3)c2c1 (stereo not drawn) [P-0913, 3,5-dimethyl-4-[1-[phenyl(2-pyridyl)methyl]pyrrolo[3,2-b]pyridin-6-yl]isoxazole]	< 1 µM	< 1 µM
COc1ccccc1Cn1cc(I)c2ncc(-c3c(C)noc3C)cc21 [P-0932, 4-[3-iodo-1-[(2-methoxyphenyl)methyl]pyrrolo[3,2-b]pyridin-6-yl]-3,5-dimethyl-isoxazole]	< 1 µM	< 1 µM
Cc1noc(C)c1-c1cnc2c(-c3ccc(C(=O)O)cc3)cn(CC3(C)CCCCC3)c2c1 [P-0912, 4-[6-(3,5-dimethylisoxazol-4-yl)-1-[(1-methylcyclohexyl)methyl]pyrrolo [3,2-b]pyridin-3-yl]benzoic acid]	< 1 µM	< 1 µM
Cc1noc(C)c1-c1cnc2c(I)cn(Cc3ncccc3F)c2c1 [P-0947, 4-[1-[(3-fluoro-2-pyridyl)methyl]-3-iodo-pyrrolo[3,2-b]pyridin-6-yl]-3,5-dimethyl-isoxazole]	< 1 µM	< 1 µM
Cc1cc(-c2cn(C(c3ccccc3)c3ccccn3)c3cc(-c4c(C)noc4C)ccc23)ccc1C(=O)O (stereo not drawn) [P-1045, 4-[6-(3,5-dimethylisoxazol-4-yl)-1-[phenyl(2-pyridyl)methyl]indol-3-yl]-2-methyl-benzoic acid]	< 1 µM	< 1 µM
COc1cc(-c2cn(Cc3ccccn3)c3cc(-c4c(C)noc4C)cnc23)ccc1C(=O)O [P-0953, 4-[6-(3,5-dimethylisoxazol-4-yl)-1-(2-pyridylmethyl)pyrrolo[3,2-b]pyridin-3-yl]-2-methoxy-benzoic acid]	< 1 µM	< 1 µM
COc1cc(-c2cn(C(c3ccccn3)C3CCCC3)c3cc(-c4c(C)noc4C)cnc23)ccc1C(=O)O (stereo not drawn) [P-1048, 4-[1-[cyclopentyl(2-pyridyl)methyl]-6-(3,5-dimethylisoxazol-4-yl)pyrrolo[3,2-b]pyridin-3-yl]-2-methoxy-benzoic acid]	< 1 µM	< 1 µM
Cc1noc(C)c1-c1ccc2c(-c3ccc(C(=O)O)cc3)cn(C(c3ccccc3)c3ccccn3)c2c1 (stereo not drawn) [P-0992, 4-[6-(3,5-dimethylisoxazol-4-yl)-1-[phenyl(2-pyridyl)methyl]indol-3-yl]benzoic acid]	< 1 µM	< 1 µM
COc1ccccc1Cn1cc(-c2ccc(C(=O)O)cc2)c2ncc(-c3c(C)noc3C)cc21 [P-0934, 4-[6-(3,5-dimethylisoxazol-4-yl)-1-[(2-methoxyphenyl)methyl]pyrrolo[3,2-b]pyridin-3-yl]benzoic acid]	< 1 µM	< 1 µM
COC(=O)c1ccc(-c2cn([C@H](c3ccccn3)C3CC3)c3cc(-c4c(C)noc4C)cnc23)cc1 [P-0989, methyl 4-[1-[(S)-cyclopropyl(2-pyridyl)methyl]-6-(3,5-dimethylisoxazol-4-yl)pyrrolo[3,2-b]pyridin-3-yl]benzoate]	< 1 µM	< 1 µM
Cc1noc(C)c1-c1cnc2c(-c3ccc(P(=O)(O)O)cc3)cn(C(C)c3ccccc3)c2c1 (stereo not drawn) [P-0928, [4-[6-(3,5-dimethylisoxazol-4-yl)-1-(1-phenylethyl)pyrrolo[3,2-b]pyridin-3-yl]phenyl]phosphonic acid]	< 1 µM	1 to 10 µM
CC[C@@H](c1ccccn1)n1cc(-c2ccc(C(=O)O)c(C)c2)c2ncc(-c3c(C)noc3C)cc21 [P-1026, 4-[6-(3,5-dimethylisoxazol-4-yl)-1-[(1S)-1-(2-pyridyl)propyl]pyrrolo[3,2-b]pyridin-3-yl]-2-methyl-benzoic acid]	< 1 µM	< 1 µM
Cc1noc(C)c1-c1cnc2c(I)cn(C(c3ccccn3)C3CCCC3)c2c1 (stereo not drawn) [P-0997, 4-[1-[cyclopentyl(2-pyridyl)methyl]-3-iodo-pyrrolo[3,2-b]pyridin-6-yl]-3,5-dimethyl-isoxazole]	< 1 µM	< 1 µM
COC(=O)c1ccc(-c2cn(Cc3cnc(C)s3)c3cc(-c4c(C)noc4C)cnc23)cc1 [P-0957, methyl 4-[6-(3,5-dimethylisoxazol-4-yl)-1-[(2-methylthiazol-5-yl)methyl]pyrrolo[3,2-b]pyridin-3-yl]benzoate]	< 1 µM	< 1 µM
Cc1noc(C)c1-c1cnc2c(-c3ccc(C#N)nc3)cn(C(c3ccccc3)c3ccccn3)c2c1 (stereo not drawn) [P-0907, 5-[6-(3,5-dimethylisoxazol-4-yl)-1-[phenyl(2-pyridyl)methyl]pyrrolo[3,2-b]pyridin-3-yl]pyridine-2-carbonitrile]	< 1 µM	< 1 µM
Cc1cccc(Cn2cc(I)c3ncc(-c4c(C)noc4C)cc32)n1 [P-0920, 4-[3-iodo-1-[(6-methyl-2-pyridyl)methyl]pyrrolo[3,2-b]pyridin-6-yl]-3,5-dimethyl-isoxazole]	< 1 µM	< 1 µM
COc1cccc(Cn2cc(I)c3ncc(-c4c(C)noc4C)cc32)n1 [P-0929, 4-[3-iodo-1-[(6-methoxy-2-pyridyl)methyl]pyrrolo[3,2-b]pyridin-6-yl]-3,5-dimethyl-isoxazole]	< 1 µM	< 1 µM
Cc1cccc(Cn2cc(-c3ccc(C(=O)O)cc3)c3ncc(-c4c(C)noc4C)cc32)n1 [P-0916, 4-[6-(3,5-dimethylisoxazol-4-yl)-1-[(6-methyl-2-pyridyl)methyl]pyrrolo[3,2-b]pyridin-3-yl]benzoic acid]	< 1 µM	< 1 µM
COC(=O)c1ccc(-c2cn(CC3CCCCC3)c3cc(-c4c(C)noc4C)cnc23)cc1OC [P-0904, methyl 4-[1-(cyclohexylmethyl)-6-(3,5-dimethylisoxazol-4-yl)pyrrolo[3,2-b]pyridin-3-yl]-2-methoxy-benzoate]	< 1 µM	< 1 µM
Cc1noc(C)c1-c1cnc2c(I)cn(Cc3ccccc3F)c2c1 [P-0924, 4-[1-[(2-fluorophenyl)methyl]-3-iodo-pyrrolo[3,2-b]pyridin-6-yl]-3,5-dimethyl-isoxazole]	< 1 µM	< 1 µM
